# Reference: US9938273B2 (Plexxikon Inc., priority 2015, dated 2018)
# Target: T1, BA/F3-FLT3-ITD + D835Y cells (Homo sapiens, UniProt P36888, D835Y, cells depend on it, form not given)
# T1 sequence (P36888 1-993 D835Y): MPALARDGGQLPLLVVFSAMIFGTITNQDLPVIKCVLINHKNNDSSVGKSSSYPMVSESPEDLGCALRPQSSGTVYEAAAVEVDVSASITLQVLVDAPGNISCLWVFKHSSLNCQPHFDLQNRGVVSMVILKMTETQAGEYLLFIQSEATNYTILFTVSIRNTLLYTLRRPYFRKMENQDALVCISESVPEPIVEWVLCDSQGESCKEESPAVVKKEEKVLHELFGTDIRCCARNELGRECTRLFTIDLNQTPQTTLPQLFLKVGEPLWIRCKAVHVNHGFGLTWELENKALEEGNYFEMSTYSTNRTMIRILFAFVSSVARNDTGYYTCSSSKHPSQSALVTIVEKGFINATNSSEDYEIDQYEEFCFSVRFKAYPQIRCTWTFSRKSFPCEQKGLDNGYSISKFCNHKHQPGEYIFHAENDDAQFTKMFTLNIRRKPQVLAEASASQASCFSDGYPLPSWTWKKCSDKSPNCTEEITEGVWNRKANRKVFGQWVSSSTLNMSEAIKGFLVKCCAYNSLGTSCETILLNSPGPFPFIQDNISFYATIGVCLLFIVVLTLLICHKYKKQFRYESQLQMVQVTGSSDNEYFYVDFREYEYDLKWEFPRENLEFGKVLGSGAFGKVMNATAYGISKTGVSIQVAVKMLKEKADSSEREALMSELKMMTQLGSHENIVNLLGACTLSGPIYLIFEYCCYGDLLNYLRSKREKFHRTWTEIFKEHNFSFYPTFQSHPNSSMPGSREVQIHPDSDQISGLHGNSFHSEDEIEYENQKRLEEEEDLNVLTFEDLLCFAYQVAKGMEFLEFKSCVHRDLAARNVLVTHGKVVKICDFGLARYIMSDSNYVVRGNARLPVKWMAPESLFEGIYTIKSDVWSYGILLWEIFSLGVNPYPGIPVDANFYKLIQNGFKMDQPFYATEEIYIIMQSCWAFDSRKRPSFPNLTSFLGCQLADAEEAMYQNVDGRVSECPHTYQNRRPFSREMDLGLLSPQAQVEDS
# Assay: Cell proliferation assay (CellTiter-Glo), engineered BA/F3 cells
# Format: cell-based, murine
# Settings: BaF3 FLT3 ITD/D835Y cells, 3d-Growth; read-out: BaF3_FLT3 ITD/D835Y 3d-Growth: IC50
# Outline: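 Three-day growth at 37 °C, 5% CO2 under compound (1 μM top final, 1:3 dilutions, eight points, 0.2% DMSO), read as ATP luminescence by CellTiter-Glo for IC50. Cells: MOLM-14 with FLT3 ITD plus D835Y or F691L, and IL-3-deprived Ba/F3 transfected with FLT3 ITD/D835Y, 1×10^4 per well.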
row,SMILES,GI50
1,"CONC(=O)c1cccc(-c2cnc3[nH]c(-c4ccccc4)cc3c2)c1 [Compound P-0003, N-methoxy-3-(2-phenyl-1H-pyrrolo[2,3-b]pyridin-5-yl)benzamide]",0.0001 to 10 µM
2,"NC(=O)Nc1ccc(-c2cnc3[nH]c(-c4ccccc4)cc3c2)cc1 [Compound P-0005, [4-(2-phenyl-1H-pyrrolo[2,3-b]pyridin-5-yl)phenyl]urea]",0.0001 to 10 µM
3,"CNC(=O)Nc1ccc(-c2cnc3[nH]c(-c4ccccc4)cc3c2)cc1 [Compound P-0006, 1-methyl-3-[4-(2-phenyl-1H-pyrrolo[2,3-b]pyridin-5-yl)phenyl]urea]",0.0001 to 10 µM
4,"CN(C)S(=O)(=O)Nc1cccc(-c2cnc3[nH]c(-c4ccccc4)cc3c2)c1 [Compound P-0007, 5-[3-(dimethylsulfamoylamino)phenyl]-2-phenyl-1H-pyrrolo[2,3-b]pyridine]",0.0001 to 10 µM
5,"O=S(=O)(NC1CC1)c1cccc(-c2cnc3[nH]c(C#CCO)cc3c2)c1 [Compound P-0008, N-cyclopropyl-3-[2-(3-hydroxyprop-1-ynyl)-1H-pyrrolo[2,3-b]pyridin-5-yl]benzenesulfonamide]",0.0001 to 10 µM
6,"NC1CCN(C(=O)c2n[nH]c3ccc(-c4cnc5[nH]c(-c6ccccc6)cc5c4)cc23)CC1 [Compound P-0012, (4-amino-1-piperidyl)-[5-(2-phenyl-1H-pyrrolo[2,3-b]pyridin-5-yl)-1H-indazol-3-yl]methanone]",0.0001 to 10 µM
7,"O=S(=O)(NC1CC1)c1cccc(-c2cnc3[nH]c(C#Cc4ccccc4)cc3c2)c1 [Compound P-0014, N-cyclopropyl-3-[2-(2-phenylethynyl)-1H-pyrrolo[2,3-b]pyridin-5-yl]benzenesulfonamide]",0.0001 to 10 µM
8,"N[C@H]1CCN(C(=O)c2n[nH]c3ccc(-c4cnc5[nH]c(-c6ccccc6)cc5c4)cc23)C1 [Compound P-0016, [(3S)-3-aminopyrrolidin-1-yl]-[5-(2-phenyl-1H-pyrrolo[2,3-b]pyridin-5-yl)-1H-indazol-3-yl]methanone]",0.0001 to 10 µM
9,"NC1CCC(NC(=O)c2cccc(-c3cnc4[nH]c(-c5ccccc5)cc4c3)n2)CC1 (centres unmarked) [Compound P-0018, N-(4-aminocyclohexyl)-6-(2-phenyl-1H-pyrrolo[2,3-b]pyridin-5-yl)pyridine-2-carboxamide]",0.0001 to 10 µM
10,"CC(=O)NC1CCN(C(=O)c2n[nH]c3ccc(-c4cnc5[nH]c(-c6ccccc6)cc5c4)cc23)CC1 [Compound P-0021, N-[1-[5-(2-phenyl-1H-pyrrolo[2,3-b]pyridin-5-yl)-1H-indazole-3-carbonyl]-4-piperidyl]acetamide]",0.0001 to 10 µM
11,"CN1CCC(NC(=O)c2n[nH]c3ccc(-c4cnc5[nH]c(-c6ccccc6)cc5c4)cc23)CC1 [Compound P-0022, N-(1-methyl-4-piperidyl)-5-(2-phenyl-1H-pyrrolo[2,3-b]pyridin-5-yl)-1H-indazole-3-carboxamide]",0.0001 to 10 µM
12,"CC1CCN(C(=O)c2n[nH]c3ccc(-c4cnc5[nH]c(-c6ccccc6)cc5c4)cc23)CC1 [Compound P-0027, (4-methyl-1-piperidyl)-[5-(2-phenyl-1H-pyrrolo[2,3-b]pyridin-5-yl)-1H-indazol-3-yl]methanone]",0.0001 to 10 µM
13,"CNC1CCN(C(=O)c2n[nH]c3ccc(-c4cnc5[nH]c(-c6ccccc6)cc5c4)cc23)C1 (centres unmarked) [Compound P-0028, [3-(methylamino)pyrrolidin-1-yl]-[5-(2-phenyl-1H-pyrrolo[2,3-b]pyridin-5-yl)-1H-indazol-3-yl]methanone]",0.0001 to 10 µM
14,"CNC1CN(C(=O)c2cccc(-c3cnc4[nH]c(-c5ccccc5)cc4c3)n2)C1 [Compound P-0052, [3-(methylamino)azetidin-1-yl]-[6-(2-phenyl-1H-pyrrolo[2,3-b]pyridin-5-yl)-2-pyridyl]methanone]",0.0001 to 10 µM
15,"CNC1CCN(C(=O)c2cccc(-c3cnc4[nH]c(-c5ccc(F)cc5)cc4c3)n2)C1 (centres unmarked) [Compound P-0055, [6-[2-(4-fluorophenyl)-1H-pyrrolo[2,3-b]pyridin-5-yl]-2-pyridyl]-[3-(methylamino)pyrrolidin-1-yl]methanone]",0.0001 to 10 µM
16,"CNC1CCN(C(=O)c2cccc(-c3cnc4[nH]c(-c5ccnc(OC)c5)cc4c3)n2)C1 (centres unmarked) [Compound P-0060, [6-[2-(2-methoxy-4-pyridyl)-1H-pyrrolo[2,3-b]pyridin-5-yl]-2-pyridyl]-[3-(methylamino)pyrrolidin-1-yl]methanone]",0.0001 to 10 µM

# The next lines start with the values.
row,GI50,SMILES
1,0.0001 to 10 µM,"CC(C)(C)OC(=O)NC1CCN(C(=O)c2n[nH]c3ccc(-c4cnc5[nH]c(-c6ccccc6)cc5c4)cc23)CC1 [Compound P-0011, tert-butyl N-[1-[5-(2-phenyl-1H-pyrrolo[2,3-b]pyridin-5-yl)-1H-indazole-3-carbonyl]-4-piperidyl]carbamate]"
2,0.0001 to 10 µM,"NC1CCN(C(=O)c2cccc(-c3cnc4[nH]c(-c5ccccc5)cc4c3)n2)CC1 [Compound P-0013, (4-amino-1-piperidyl)-[6-(2-phenyl-1H-pyrrolo[2,3-b]pyridin-5-yl)-2-pyridyl]methanone]"
3,0.0001 to 10 µM,"N[C@H]1CCN(C(=O)c2cccc(-c3cnc4[nH]c(-c5ccccc5)cc4c3)n2)C1 [Compound P-0015, [(3S)-3-aminopyrrolidin-1-yl]-[6-(2-phenyl-1H-pyrrolo[2,3-b]pyridin-5-yl)-2-pyridyl]methanone]"
4,0.0001 to 10 µM,"CC(C)(C)OC(=O)NC1CCN(C(=O)c2cccc(-c3cnc4[nH]c(-c5ccccc5)cc4c3)n2)CC1 [Compound P-0017, tert-butyl N-[1-[6-(2-phenyl-1H-pyrrolo[2,3-b]pyridin-5-yl)pyridine-2-carbonyl]-4-piperidyl]carbamate]"
5,0.0001 to 10 µM,"CC(=O)NC1CCN(C(=O)c2cccc(-c3cnc4[nH]c(-c5ccccc5)cc4c3)n2)CC1 [Compound P-0020, N-[1-[6-(2-phenyl-1H-pyrrolo[2,3-b]pyridin-5-yl)pyridine-2-carbonyl]-4-piperidyl]acetamide]"
6,0.0001 to 10 µM,"O=C(c1cccc(-c2cnc3[nH]c(-c4ccccc4)cc3c2)n1)N1CCC(CO)CC1 [Compound P-0023, [4-(hydroxymethyl)-1-piperidyl]-[6-(2-phenyl-1H-pyrrolo[2,3-b]pyridin-5-yl)-2-pyridyl]methanone]"
7,0.0001 to 10 µM,"CCOC(=O)C1CCN(C(=O)c2cccc(-c3cnc4[nH]c(-c5ccccc5)cc4c3)n2)CC1 [Compound P-0025, ethyl 1-[6-(2-phenyl-1H-pyrrolo[2,3-b]pyridin-5-yl)pyridine-2-carbonyl]piperidine-4-carboxylate]"
8,0.0001 to 10 µM,"NCC1CCN(C(=O)c2cccc(-c3cnc4[nH]c(-c5ccccc5)cc4c3)n2)CC1 [Compound P-0026, [4-(aminomethyl)-1-piperidyl]-[6-(2-phenyl-1H-pyrrolo[2,3-b]pyridin-5-yl)-2-pyridyl]methanone]"
9,0.0001 to 10 µM,"CNC1CCN(C(=O)c2cccc(-c3cnc4[nH]c(-c5ccccc5)cc4c3)n2)C1 (centres unmarked) [Compound P-0040, [3-(methylamino)pyrrolidin-1-yl]-[6-(2-phenyl-1H-pyrrolo[2,3-b]pyridin-5-yl)-2-pyridyl]methanone]"
10,0.0001 to 10 µM,"CN[C@@H]1CCN(C(=O)c2cccc(-c3cnc4[nH]c(-c5ccccc5)cc4c3)n2)C1 [Compound P-0058, [(3R)-3-(methylamino)pyrrolidin-1-yl]-[6-(2-phenyl-1H-pyrrolo[2,3-b]pyridin-5-yl)-2-pyridyl]methanone]"
